Entries after “also recorded” stand apart in the source; their conditions may differ.
How the values were obtained:
ERα [1] = target: T1, ERα (Homo sapiens, UniProt P03372); assay: Estrogen induction of cyclin D1 mRNA in MCF-7 cells; assay type: cell-based; parameters: endogenous in cells; settings: 10 μM, 10 nM E2, 24 h
T1 sequence (P03372 1-595): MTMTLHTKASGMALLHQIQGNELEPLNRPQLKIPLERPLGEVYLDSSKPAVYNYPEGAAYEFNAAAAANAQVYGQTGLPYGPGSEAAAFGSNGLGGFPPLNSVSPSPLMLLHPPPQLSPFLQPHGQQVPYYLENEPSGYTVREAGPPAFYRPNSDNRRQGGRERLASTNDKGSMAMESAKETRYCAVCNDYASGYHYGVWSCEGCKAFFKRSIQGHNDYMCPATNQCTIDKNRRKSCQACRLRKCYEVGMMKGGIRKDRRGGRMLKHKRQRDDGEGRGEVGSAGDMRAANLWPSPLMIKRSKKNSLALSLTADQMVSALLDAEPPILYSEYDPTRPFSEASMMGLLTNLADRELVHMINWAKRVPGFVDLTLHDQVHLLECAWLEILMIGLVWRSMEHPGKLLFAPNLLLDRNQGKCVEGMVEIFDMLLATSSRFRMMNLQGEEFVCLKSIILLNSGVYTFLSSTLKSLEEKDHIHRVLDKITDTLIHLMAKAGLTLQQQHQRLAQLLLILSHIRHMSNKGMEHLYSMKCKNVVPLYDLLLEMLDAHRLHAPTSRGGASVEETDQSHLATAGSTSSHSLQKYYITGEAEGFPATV
Description: FIG. 15 illustrates results of testing for inhibition of the estrogen induction of Cyclin D1 mRNA. MCF-7 cells were plated and 24 h later treated with ethanol vehicle, 10 nM E2, or 10 nM E2 and 10 μM TPSF. Cells were maintained for 24 hours, RNA was extracted and cyclin D1 mRNA levels were measured by qRT-PCR. Cyclin D1 mRNA levels in the vehicle only sample were set to 1. Data is the average±SEM for 3 experiments each assayed in triplicate.
(§1) Endogenous Gene Expression. MCF-7 cells or MCF7ERαHA cells were maintained for 4 days in medium containing 5% CD calf serum (MCF-7 cells) or 10% 6×CD-FBS (MCF7ERαHA cells). In assays of TPSF inhibition of PI-9 induction, cells were plated, incubated for 24 hours in the indicated concentrations of TPSF and then maintained 4 hours with and without E2, with and without TPSF. To induce ERα, MCF7ERαHA cells were also maintained in 0.5 μg/ml Dox for 24 hours prior to addition of E2 or OHT with or without TPSF. For induction of cyclin D1, 24 hours after plating the cells, E2 with and without TPSF was added, the cells were maintained for 24 hours, RNA was extracted and mRNA levels were determined by quantitative RT-PCR as described (19, 26). Actin mRNA levels were used as the qRT-PCR internal standard. The primers and sequences used in qRT-PCR were as follows.

ERα [2] = target: T1, ERα; assay: Endogenous PI-9 mRNA induction in MCF-7 cells (qRT-PCR); assay type: cell-based; parameters: endogenous in cells; settings: 10 nM E2, read-out: IC50 for inhibition of E2-ERα induction of endogenous PI-9 mRNA (Endog. PI-9)
Description: as §1

NF-κB = assay: NF-κB-mediated induction of IL-8 mRNA by TNF-α in MCF-7 cells; assay type: cell-based, human
Description: FIG. 14 illustrates results of testing for specific inhibition of E2-ERα-mediated gene expression. The effects of TPSF on an NF-κB regulated gene, IL-8, were tested in MCF-7 cells maintained for 24 hours in medium containing 10 ng/ml TNF-α alone or TNF-α and 30 μM TPSF. RNA was extracted and IL-8 mRNA levels were measured by quantitative (q)RT-PCR. Data shown is the average of 3 experiments±SEM.
as §1

BT474 cells = assay: E2-ERα-dependent growth of BT474 cells (MTS); assay type: cell-based; settings: Homo sapiens, BT-474, 96 h, 100 pM E2, 4 days, read-out: IC50 for inhibition of E2-ERα-dependent growth of BT474 cells
Description: FIG. 20 illustrates further activity of TPSF in the inhibition of tamoxifen-resistant human breast cancer cells. The effects of TPSF on the E2-ERα-dependent growth of tamoxifen-resistant BT474 and ZR-75 cells were assessed. […] The cells were maintained in medium containing 10% CD-FBS (ZR-75) or 10% CD-CS (BT474) containing or lacking 100 pM E2 and the indicated concentrations of TPSF. Viable cells were measured by comparison to a standard curve of cell number versus absorbance using the MTS assay. Data represents the average of at least 4 wells. IC50 values for TPSF inhibition of cell growth were calculated by curve-fitting using Sigma Plot.
Assays for Cell Growth and Viability. Cells were maintained in the media listed above containing CD-treated serum for at least 4 days prior to the experiment. To minimize cell aggregation, MCF-7 cells were harvested in 10 mM Hepes, pH 7.4, 1 mM EDTA. Other cell lines were harvested in trypsin-EDTA. 1,000 cells were plated into each well of a 96 well plate. For slow growing ZR-75 cells, 2,000 cells were plated/well. The cells were maintained in medium containing CD-treated serum for 24 hours. At 24 hours the medium was changed and E2 and DMSO vehicle or TPSF in DMSO was added. […] After 4 days viable cells were determined using a cell viability test, Promega CellTiter 96 Aqueous One Solution Cell Proliferation Assay (MTS) (Promega, Wis.).

MCF-7 cells = assay: E2-dependent growth of MCF-7 cells (MTS); assay type: cell-based, human
Description: Assays for Cell Growth and Viability. Cells were maintained in the media listed above containing CD-treated serum for at least 4 days prior to the experiment. To minimize cell aggregation, MCF-7 cells were harvested in 10 mM Hepes, pH 7.4, 1 mM EDTA. Other cell lines were harvested in trypsin-EDTA. 1,000 cells were plated into each well of a 96 well plate. For slow growing ZR-75 cells, 2,000 cells were plated/well. The cells were maintained in medium containing CD-treated serum for 24 hours. At 24 hours the medium was changed and E2 and DMSO vehicle or TPSF in DMSO was added. The medium was replaced after 2 days (except for BT474 cells whose medium was not changed). After 4 days viable cells were determined using a cell viability test, Promega CellTiter 96 Aqueous One Solution Cell Proliferation Assay (MTS) (Promega, Wis.).

- IC50 (ERα [2]): 0.2 µM
- IC50 (NF-κB; Homo sapiens, MCF7, TNF-α, IL-8 mRNA, read-out: IC50 for inhibition of NF-κB gene expression): > 30 µM
- IC50 (BT474 cells): 1.6 µM
- IC50 (MCF-7 cells; Homo sapiens, MCF7, 96 h, 1 pM E2, 4 days, MTS, read-out: IC50 for inhibition of E2-dependent growth of MCF-7 cells): 2 µM
SMILES: Cn1c(=S)c2[nH]c(SCCCC(=O)c3ccc(F)cc3)nc2n(C)c1=O [TPSF, Butyrophenone, p-fluoro-4-(1,2,3,6,-tetrahydro-1,3-dimethyl-2-oxo-6-thionopurin-8-ylthio)]
- effect on E2 induction of cyclin D1 mRNA (ERα [1]): completely inhibited; also recorded: abolished
- effect on NF-κB-mediated induction of IL-8 mRNA by TNF-α (NF-κB; 30 μM, 10 ng/ml TNF-α, 24 h): no effect; also recorded: absence of an effect
- effect on E2-dependent growth of MCF-7 cells (MCF-7 cells; 7.5 μM): completely blocked

Source: patent US8871751B2, “Compositions and methods relating to nuclear hormone and steroid hormone receptors including inhibitors of estrogen receptor alpha-mediated gene expression and inhibition of breast cancer” (The Board of Trustees of the University of Illinois, priority 2008, dated 2014)
